The record followed here is BindingDB's records for patent US20250313563 (The Broad Institute, 2025).

Structures are written as SMILES. Several values for one entry are separate records, joined by “and”; a condition that tells them apart may be missing. Equal values may be shown once.

The target of assay [1] is Glycogen synthase kinase-3 alpha (Homo sapiens, UniProt P49840). Kind of assay: TR-FRET Assay. The essentials: (§1)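 Compound was preincubated 30 min in assay buffer before the kinase reaction, which was quenched with EDTA. Phosphorylation was detected by TR-FRET after adding a solution of 40 nM streptavidin-d2 and 2 nM Tb-labelled anti-pSer641 antibody.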
Glycogen synthase kinase-3 alpha, sequence (P49840 whole entry): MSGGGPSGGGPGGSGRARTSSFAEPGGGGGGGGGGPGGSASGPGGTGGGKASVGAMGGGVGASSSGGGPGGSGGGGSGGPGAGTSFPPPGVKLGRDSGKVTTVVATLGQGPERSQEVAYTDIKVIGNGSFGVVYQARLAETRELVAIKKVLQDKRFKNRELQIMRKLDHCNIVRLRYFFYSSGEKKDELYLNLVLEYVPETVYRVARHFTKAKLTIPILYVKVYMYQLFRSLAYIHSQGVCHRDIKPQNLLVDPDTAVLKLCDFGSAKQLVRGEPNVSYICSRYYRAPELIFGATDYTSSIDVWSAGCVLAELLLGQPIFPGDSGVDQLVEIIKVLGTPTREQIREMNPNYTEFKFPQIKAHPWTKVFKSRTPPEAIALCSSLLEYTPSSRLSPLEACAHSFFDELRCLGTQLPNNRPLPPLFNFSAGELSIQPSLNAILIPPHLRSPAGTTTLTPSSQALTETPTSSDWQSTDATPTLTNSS
For assay [2], the target named is Glycogen synthase kinase-3 beta (Homo sapiens, UniProt P49841). Briefly: TR-FRET Assay. The essentials: as §1
Glycogen synthase kinase-3 beta, sequence (P49841 whole entry): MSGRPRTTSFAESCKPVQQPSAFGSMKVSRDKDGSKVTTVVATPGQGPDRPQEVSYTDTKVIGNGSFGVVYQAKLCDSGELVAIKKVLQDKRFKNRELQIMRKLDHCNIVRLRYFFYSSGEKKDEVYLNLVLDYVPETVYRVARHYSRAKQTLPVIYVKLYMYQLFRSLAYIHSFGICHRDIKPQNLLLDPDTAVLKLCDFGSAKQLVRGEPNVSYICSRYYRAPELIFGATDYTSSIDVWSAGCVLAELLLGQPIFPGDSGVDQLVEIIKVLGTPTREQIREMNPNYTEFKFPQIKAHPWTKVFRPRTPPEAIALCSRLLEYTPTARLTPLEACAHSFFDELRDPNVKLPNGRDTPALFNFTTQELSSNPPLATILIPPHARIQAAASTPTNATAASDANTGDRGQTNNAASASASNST

Consider `CC1(C)CC(=O)C2=C(C1)NC1N=NC(CCC(F)(F)F)=C1C2(C)c1ccccc1` (centres undefined) [US20250313563, Compound 828845], for which the IC50 in assay [1] and in assay [2] was 100 to 1000 nM each time.

For the compound `CCC1(c2cccc(C(F)F)c2)C2=C(CC(C)(C)NC2=O)NC2N=NC(C)=C21` (centres undefined) [US20250313563, Compound 947865], the IC50 in assay [1] and in assay [2] was under 100 nM throughout.

Consider `CC[C@]1(c2cccc(Br)c2)C2=CN=NC2NC2=C1C(=O)C[C@@H](C(F)(F)F)C2` (some centres undefined) [US20250313563, Compound 826653], for which the IC50 is under 100 nM in assay [1] and 100 to 1000 nM in assay [2].

As for `CC[C@]1(c2cccc(Br)c2)C2=C(C[C@H](C)CC2=O)NC2N=NC(C(F)(F)F)=C21` (some centres undefined) [US20250313563, Compound 828848], the IC50 in assay [1] and in assay [2] was under 100 nM throughout.

Turning to `Cn1nccc1CN1CC2(C1)C1=C(N=NC1)NC1=C2C(=O)CC(C)(C)C1` [US20250313563, Compound 932653], the values for the IC50 in assay [1] and in assay [2] were 1000 to 5000 nM and over 5000 nM, respectively.

As to `CC[C@@]1(c2cccc(C(F)(F)F)c2)C2=CN=NC2NC2=C1C(=O)N(c1ccccc1)CC2` (some centres undefined) [US20250313563, Compound 929475], the IC50 in assay [1] and in assay [2] was over 5000 nM in each case.

`COc1ccccc1S(=O)(=O)N1CCCC2(CC1)C1=CN=NC1NC1=C2C(=O)CC(C)(C)C1` (centres undefined) [US20250313563, Compound 917142]: the figures for the IC50 in assay [1] and in assay [2] were under 100 nM and 100 to 1000 nM, respectively.

Regarding `CC1(C)CC(=O)C2=C(C1)NC1=C(CN=N1)C21CN(S(=O)(=O)C2CCCC2)C1` [US20250313563, Compound 917139], the IC50 was < 100 nM and 100 to 1000 nM in assay [1]; < 100 nM and 100 to 1000 nM in assay [2].

For `Cc1ccc(S(=O)(=O)N2CCC3(CC2)C2=C(N=NC2)NC2=C3C(=O)CC(C)(C)C2)c(C)c1` [US20250313563, Compound 947468], the IC50 in assay [1] and in assay [2] was under 100 nM throughout.

Consider `CCC1(c2cccc(NS(C)(=O)=O)c2)C2=CN=NC2NC2=C1C(=O)CC(C)(C)C2` (centres undefined) [US20250313563, Compound 913253], for which the IC50 in assay [1] and in assay [2] was under 100 nM in each case.

`CCC1(c2cccc(N(C)C(O)C3CC3)c2)C2=CN=NC2NC2=C1C(=O)CC(C)(C)C2` (centres undefined) [US20250313563, Compound 912067]: the IC50 in assay [1] and in assay [2] was under 100 nM each time.

`CCN(C(C)=O)c1cccc(C2(CC)C3=CN=NC3NC3=C2C(=O)CC(C)(C)C3)c1` (centres undefined) [US20250313563, Compound 884109]: the IC50 in assay [1] and in assay [2] was under 100 nM in each case.

On to `CC1(C)CC(=O)C2=C(C1)NC1=C(CN=N1)C21COC2(CCC2)C1` (centres undefined) [US20250313563, Compound 911973], for which the IC50 in assay [1] and in assay [2] was 100 to 1000 nM each time.

`CCC1(c2cccc(N(C)c3ccnn3C)c2)C2=CN=NC2NC2=C1C(=O)CC(C)(C)C2` (centres undefined) [US20250313563, Compound 889604]: the results for the IC50 in assay [1] and in assay [2] were 100 to 1000 nM and 1000 to 5000 nM, respectively.

`CCN(c1cccnc1)c1cccc(C2(CC)C3=CN=NC3NC3=C2C(=O)CC(C)(C)C3)c1` (centres undefined) [US20250313563, Compound 885331]: the IC50 in assay [1] and in assay [2] was under 100 nM in each case.

On to `CCC1(c2cccc(-c3ccnn3C)c2)C2=C(CC(C)(C)CC2=O)NC2N=NC(C(F)(F)F)=C21` (centres undefined) [US20250313563, Compound 945531], for which the IC50 in assay [1] is under 100 nM; in assay [2], < 100 nM and 100 to 1000 nM.

As for `CC[C@]1(c2cccc(Cc3ncccn3)c2)C2=CN=NC2NC2=C1C(=O)CC(C)(C)C2` (some centres undefined) [US20250313563, Compound 947498], the IC50 in assay [1] and in assay [2] was under 100 nM in each case.

`CCC1(c2ccccc2)C2=C(N=NC2)NC2=C1C(=O)N(C)CC2` (centres undefined) [US20250313563, Compound 883867]: the IC50 in assay [1] and in assay [2] was over 5000 nM throughout.

Take `CC1(C)CC(=O)C2=C(C1)NC1=C(CN=N1)C2(C)c1cccc(Br)c1` (centres undefined) [US20250313563, Compound 789277]: the IC50 was under 100 nM in assay [1] and 100 to 1000 nM in assay [2].

As for `CC1(C)CC(=O)C2=C(C1)NC1=C(CN=N1)C21CC(C(F)(F)F)C1` (centres undefined) [US20250313563, Compound 874527], the values for the IC50 in assay [1] and in assay [2] were under 100 nM and 100 to 1000 nM, respectively.

`CNC(=O)C1CCC2(CC1)C1=C(N=NC1)NC1=C2C(=O)CC(C)(C)C1` (centres undefined) [US20250313563, Compound 945397]: the IC50 in assay [1] and in assay [2] was 100 to 1000 nM throughout.

With `CC[C@@]1(c2cccc([C@@H]3CCOC3)c2)C2=CN=NC2NC2=C1C(=O)CC(C)(C)C2` (some centres undefined) [US20250313563, Compound 889565], the IC50 was in the range of 100 to 1000 nM in assay [1] and 1000 to 5000 nM in assay [2].

Regarding `CC[C@@]1(c2cccc(-c3ccncc3OC)c2)C2=CN=NC2NC2=C1C(=O)CC(C)(C)C2` (some centres undefined) [US20250313563, Compound 945471], the IC50 in assay [1] is 1000 to 5000 nM and > 5000 nM; in assay [2], 1000 to 5000 nM and > 5000 nM.

Turning to `CC1(C)CC(=O)C2=C(C1)NC1N=NC(C3CC(F)(F)C3)=C1[C@@]21COc2ccccc21` (some centres undefined) [US20250313563, Compound 127430], the values for the IC50 in assay [1] and in assay [2] were 1000 to 5000 nM and 100 to 1000 nM, respectively.

As for `CC[C@]1(c2cccc(-c3cc(C)nnc3C)c2)C2=C(CC(C)(C)NC2=O)NC2N=NC(C)=C21` (some centres undefined) [US20250313563, Compound 949332], the IC50 in assay [1] was 1000 to 5000 nM; in assay [2], over 5000 nM.

With `CCC1(c2cccc(Cl)c2)C2=C(CC(C)(C)CC2=O)NC2N=NC(C(F)(F)F)=C21` (centres undefined) [US20250313563, Compound 789566], the IC50 in assay [1] and in assay [2] was under 100 nM in each case.

Regarding `CCN(C(C)=O)c1cccc([C@@]2(CC)C3=CN=NC3NC3=C2C(=O)CC(C)(C)C3)c1` (some centres undefined) [US20250313563, Compound 909214], the IC50 in assay [1] and in assay [2] was under 100 nM throughout.

Regarding `CC[C@@]1(c2cccc(N(c3cccnc3)C(C)C)c2)C2=CN=NC2NC2=C1C(=O)CC(C)(C)C2` (some centres undefined) [US20250313563, Compound 917087], the IC50 in assay [1] lay in the range of 100 to 1000 nM; in assay [2], 1000 to 5000 nM.

Regarding `CC(C)(C)CC1=C2C(N=N1)NC1=C(C(=O)CC(C)(C)C1)[C@]21CCc2cc(F)ccc21` (some centres undefined) [US20250313563, Compound 782424], the IC50 in assay [1] is 100 to 1000 nM; in assay [2], under 100 nM.

Regarding `CC[C@]1(c2cccc(-c3c(C)cncc3C)c2)C2=CN=NC2NC2=C1C(=O)NC(C)(C)C2` (some centres undefined) [US20250313563, Compound 948829], the IC50 in assay [1] and in assay [2] was over 5000 nM in each case.

As for `CCC1(c2cccc(C(F)(F)F)c2)C2=CN=NC2NC2=C1C(=O)N(C(C)C)CC2` (centres undefined) [US20250313563, Compound 825755], the IC50 was under 100 nM in assay [1] and 100 to 1000 nM in assay [2].

Turning to `CC[C@@]1(c2cccc(-c3cnn(-c4ccncc4)c3)c2)C2=CN=NC2NC2=C1C(=O)NC(C)(C)C2` (some centres undefined) [US20250313563, Compound 952912], the IC50 in assay [1] was 100 to 1000 nM; in assay [2], over 5000 nM.

As to `CC[C@@]1(c2cccc(N(C)c3nccc(OC)n3)c2)C2=CN=NC2NC2=C1C(=O)CC(C)(C)C2` (some centres undefined) [US20250313563, Compound 947337], the IC50 was 100 to 1000 nM in assay [1] and 1000 to 5000 nM in assay [2].

As for `CC[C@]1(c2cccc(-c3ccnc(C(F)F)c3)c2)C2=CN=NC2NC2=C1C(=O)NC(C)(C)C2` (some centres undefined) [US20250313563, Compound 949388], the half-maximal inhibitory concentration (IC50) in assay [1] was 1000 to 5000 nM; in assay [2] it was over 5000 nM.

In the case of `CC[C@@]1(c2cccc(-c3cc(-c4ccccc4)nn3C(C)C)c2)C2=CN=NC2NC2=C1C(=O)NC(C)(C)C2` (some centres undefined) [US20250313563, Compound 952411], the IC50 in assay [1] was 1000 to 5000 nM; in assay [2], over 5000 nM.

Regarding `CC[C@]1(c2ccccc2)C2=CN=NC2NC2=C1C(=O)C[C@]1(CCCOC1)C2` (some centres undefined) [US20250313563, Compound 816878], the IC50 lay within 100 to 1000 nM in assay [1] and 1000 to 5000 nM in assay [2].

For `CC[C@@]1(c2cccc(-c3ccnn3C3CC3(F)F)c2)C2=CN=NC2NC2=C1C(=O)NC(C)(C)C2` (some centres undefined) [US20250313563, Compound 950824], the IC50 in assay [1] was < 100 nM and 100 to 1000 nM; in assay [2] it was < 100 nM and 100 to 1000 nM.

As to `CCC1(c2cccc(N(C)c3nc(C)cc(C)n3)c2)C2=CN=NC2NC2=C1C(=O)CC(C)(C)C2` (centres undefined) [US20250313563, Compound 926304], the IC50 in assay [1] is 100 to 1000 nM; in assay [2], 1000 to 5000 nM.

Regarding `C[C@H]1CC(=O)C2=C(C1)NC1=C(CN=N1)[C@@]2(C)c1ccccc1` [US20250313563, Compound 789334], the results for the IC50 in assay [1] and in assay [2] were 100 to 1000 nM and 1000 to 5000 nM, respectively.

In the case of `CC[C@]1(c2cccc(N3CCCC3)c2)C2=C(CC(C)(C)CC2=O)NC2N=NC(C)=C21` (some centres undefined) [US20250313563, Compound 883875], the results for the IC50 in assay [1] and in assay [2] were 100 to 1000 nM and 1000 to 5000 nM, respectively.

`CCC1(c2cccc(N(CCc3ccccc3)C(C)=O)c2)C2=CN=NC2NC2=C1C(=O)CC(C)(C)C2` (centres undefined) [US20250313563, Compound 912064]: the IC50 in assay [1] and in assay [2] was under 100 nM each time.

With `CCC1(c2cccc(-c3cn(C)nc3C)c2)C2=CN=NC2NC2=C1C(=O)CC(C)(C)C2` (centres undefined) [US20250313563, Compound 926840], the IC50 in assay [1] and in assay [2] was under 100 nM each time.

In the case of `CCC1(c2cccc(Br)c2)C2=C(CC(C)CC2=O)NC2N=NC(C(F)(F)F)=C21` (centres undefined) [US20250313563, Compound 826715], the IC50 in assay [1] and in assay [2] was under 100 nM in each case.

Consider `CC1(C)CC(=O)C2=C(C1)NC1=C(CN=N1)C21CCN(S(=O)(=O)c2cc(F)ccc2F)CC1` [US20250313563, Compound 948121], for which the IC50 in assay [1] was < 100 nM and 100 to 1000 nM; in assay [2], < 100 nM and 100 to 1000 nM.

For the compound `Cc1cc(S(=O)(=O)N2CCC3(CC2)C2=C(N=NC2)NC2=C3C(=O)CC(C)(C)C2)c(C)s1` [US20250313563, Compound 945674], the results for the IC50 in assay [1] and in assay [2] were under 100 nM and 100 to 1000 nM, respectively.

For the compound `CC1(C)CC(=O)C2=C(C1)NC1=C(CN=N1)C21CCCCC1=O` (centres undefined) [US20250313563, Compound 912105], the IC50 in assay [1] and in assay [2] was over 5000 nM in each case.

`CC[C@@]1(c2cccc(-c3cnn(-c4cccnc4)c3)c2)C2=CN=NC2NC2=C1C(=O)NC(C)(C)C2` (some centres undefined) [US20250313563, Compound 952024]: the IC50 in assay [1] is 100 to 1000 nM; in assay [2] it was over 5000 nM.
